{
  "source": "paper PMC8015229",
  "about": "“Focus on Human Monoamine Transporter Selectivity. New Human DAT and NET Models, Experimental Validation, and SERT Affinity Exploration” (ACS Chemical Neuroscience, 2020)",
  "key": {"DAT [1]": {"biological_target": "DAT", "conditions": "binding affinity for human transporters; cited from earlier work"}, "DAT [2]": {"biological_target": "T1, DAT (Oryctolagus cuniculus, UniProt Z9V7K4Q734)", "T1 sequence (Z9V7K4Q734 1-627)": "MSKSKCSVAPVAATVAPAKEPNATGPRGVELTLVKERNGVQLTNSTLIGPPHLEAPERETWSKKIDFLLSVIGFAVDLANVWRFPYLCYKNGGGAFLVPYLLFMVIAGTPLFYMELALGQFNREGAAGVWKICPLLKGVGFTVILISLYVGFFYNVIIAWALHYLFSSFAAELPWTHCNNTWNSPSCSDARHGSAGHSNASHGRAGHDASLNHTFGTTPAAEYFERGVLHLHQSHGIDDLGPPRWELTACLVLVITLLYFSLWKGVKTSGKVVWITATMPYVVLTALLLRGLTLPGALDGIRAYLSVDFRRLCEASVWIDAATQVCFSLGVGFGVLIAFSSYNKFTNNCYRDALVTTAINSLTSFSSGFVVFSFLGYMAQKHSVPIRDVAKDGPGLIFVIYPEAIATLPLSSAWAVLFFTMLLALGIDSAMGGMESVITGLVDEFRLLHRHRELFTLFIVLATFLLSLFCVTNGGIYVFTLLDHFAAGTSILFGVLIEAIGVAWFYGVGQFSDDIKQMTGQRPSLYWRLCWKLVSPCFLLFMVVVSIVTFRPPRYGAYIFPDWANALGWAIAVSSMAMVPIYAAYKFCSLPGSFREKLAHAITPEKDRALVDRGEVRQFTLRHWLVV", "assay": "[3H]WIN 35,428 binding assay to rabbit striatal membranes", "conditions": "mean ± SE of three or more experiments, tested as hydrochloride salts", "protocol": "(§1) Membranes used in DAT and SERT binding assays were prepared from frozen rabbit striatum and frontal cortex as previously described.[29]\nDAT binding assays were performed using 2 nM [^3H]WIN 35,428 (specificity activity, 84.5 Ci mmol^–1; PerkinElmer Life Science) as previously described by Nencetti et al.[29]"}, "NET [3]": {"biological_target": "T2, NET (Oryctolagus cuniculus, UniProt G1TDF9)", "T2 construct": "tissue Charles River Laboratories, Inc. (animals); host or cells: cerebral cortex of New Zealand White rabbit", "T2 sequence (G1TDF9 1-617)": "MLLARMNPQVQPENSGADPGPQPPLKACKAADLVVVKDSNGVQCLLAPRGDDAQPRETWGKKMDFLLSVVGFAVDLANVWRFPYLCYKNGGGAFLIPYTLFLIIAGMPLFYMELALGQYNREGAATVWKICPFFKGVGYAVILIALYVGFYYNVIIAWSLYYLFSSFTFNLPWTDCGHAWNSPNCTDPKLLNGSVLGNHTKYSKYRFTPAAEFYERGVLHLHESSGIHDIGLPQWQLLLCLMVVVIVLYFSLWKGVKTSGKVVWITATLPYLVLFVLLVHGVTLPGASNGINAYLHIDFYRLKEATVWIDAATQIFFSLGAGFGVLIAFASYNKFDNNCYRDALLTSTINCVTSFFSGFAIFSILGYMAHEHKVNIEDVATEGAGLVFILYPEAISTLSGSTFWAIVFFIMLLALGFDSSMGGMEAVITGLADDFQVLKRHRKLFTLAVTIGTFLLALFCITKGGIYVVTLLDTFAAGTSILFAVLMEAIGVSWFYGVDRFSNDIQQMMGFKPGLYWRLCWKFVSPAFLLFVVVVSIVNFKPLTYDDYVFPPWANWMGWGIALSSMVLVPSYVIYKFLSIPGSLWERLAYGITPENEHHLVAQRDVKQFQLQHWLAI", "assay": "[3H]nisoxetine binding assay to rabbit cortical membranes", "protocol": "This washing procedure was repeated twice. The resulting pellet was immediately used in the binding assay or frozen at −80 °C until the time of the assay.\nIncubation was carried out at 4 °C for 4 h."}, "NET [4]": {"biological_target": "NET", "conditions": "cited from earlier work"}, "SERT [5]": {"biological_target": "T3, SERT (Homo sapiens, UniProt P31645)", "T3 sequence (P31645 whole entry)": "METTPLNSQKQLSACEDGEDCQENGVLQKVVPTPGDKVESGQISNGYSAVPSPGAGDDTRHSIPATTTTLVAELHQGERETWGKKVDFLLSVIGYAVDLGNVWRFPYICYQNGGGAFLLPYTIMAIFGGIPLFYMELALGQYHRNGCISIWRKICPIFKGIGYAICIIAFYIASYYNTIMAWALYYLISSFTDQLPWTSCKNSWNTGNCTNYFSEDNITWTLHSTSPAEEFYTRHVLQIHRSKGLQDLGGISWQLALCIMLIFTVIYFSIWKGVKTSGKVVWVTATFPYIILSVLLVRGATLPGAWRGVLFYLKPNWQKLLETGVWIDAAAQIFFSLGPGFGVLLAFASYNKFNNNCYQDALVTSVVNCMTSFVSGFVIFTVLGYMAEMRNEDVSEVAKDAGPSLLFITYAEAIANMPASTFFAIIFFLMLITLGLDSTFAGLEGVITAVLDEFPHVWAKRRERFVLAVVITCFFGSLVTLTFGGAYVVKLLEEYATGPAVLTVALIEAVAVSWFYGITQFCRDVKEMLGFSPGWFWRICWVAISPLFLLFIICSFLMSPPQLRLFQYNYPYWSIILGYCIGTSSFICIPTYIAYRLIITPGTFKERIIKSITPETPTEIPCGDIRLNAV", "conditions": "cited from earlier work"}, "SERT [6]": {"biological_target": "T4, SERT (Oryctolagus cuniculus, UniProt A0A5F9CLU6)", "T4 sequence (A0A5F9CLU6 1-628)": "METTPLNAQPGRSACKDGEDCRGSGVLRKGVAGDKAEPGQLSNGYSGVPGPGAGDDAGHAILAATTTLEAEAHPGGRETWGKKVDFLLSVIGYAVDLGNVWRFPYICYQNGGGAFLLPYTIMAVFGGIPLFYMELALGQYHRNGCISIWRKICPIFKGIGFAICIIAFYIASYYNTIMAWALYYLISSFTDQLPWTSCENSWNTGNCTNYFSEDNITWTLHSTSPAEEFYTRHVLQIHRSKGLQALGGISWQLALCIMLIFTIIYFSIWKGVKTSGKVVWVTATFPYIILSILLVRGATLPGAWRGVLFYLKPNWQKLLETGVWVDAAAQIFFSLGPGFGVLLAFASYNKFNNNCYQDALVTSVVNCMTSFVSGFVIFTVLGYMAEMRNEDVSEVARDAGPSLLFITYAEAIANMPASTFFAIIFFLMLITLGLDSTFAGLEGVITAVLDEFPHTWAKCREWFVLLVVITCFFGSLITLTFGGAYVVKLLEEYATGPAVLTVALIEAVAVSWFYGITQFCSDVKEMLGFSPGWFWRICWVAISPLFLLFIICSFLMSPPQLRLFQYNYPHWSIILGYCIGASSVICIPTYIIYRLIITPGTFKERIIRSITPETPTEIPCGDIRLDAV", "conditions": "rabbit cortical membranes; tested as hydrochloride salts; cited from earlier work"}, "SERT [7]": {"biological_target": "T3, SERT", "assay": "[3H]paroxetine binding assay to human platelet membranes"}, "SERT [8]": {"biological_target": "T4, SERT", "assay": "[3H]paroxetine binding assay to rabbit cortical membranes", "protocol": "as §1"}, "SERT [9]": {"biological_target": "T3, SERT", "assay": "[3H]5-HT uptake to human platelets"}, "DAT [10]": {"biological_target": "T1, DAT", "conditions": "rabbit striatal membranes; tested as hydrochloride salts; read-out: [3H]-WIN 35,428, Ki; cited from earlier work"}, "NET [11]": {"biological_target": "T2, NET", "conditions": "read-out: [3H]nisoxetine, Ki; rabbit cortical membranes; cited from earlier work"}, "SERT [12]": {"biological_target": "SERT", "conditions": "binding affinity for rat transporter; cited from earlier work"}, "NET [13]": {"biological_target": "NET", "conditions": "binding affinity for rat transporter; cited from earlier work"}, "[14]": {"conditions": "binding affinity for human transporters"}, "[15]": {"conditions": "rabbit cortical membranes, tested as hydrochloride salts"}},
  "note": "Where two headings read alike, the source gives them in different places.",
  "data": [
    {"smiles": "COCCCC/C(=N\\OCCN)c1ccc(C(F)(F)F)cc1", "note": "[compound 11, fluvoxamine]", "values": [
      {"measurement": "DAT pKi exp", "setting": "DAT [1]", "result": 5.03}
    ]},
    {"smiles": "Cl.Fc1ccc(COC2(c3ccc(C(F)(F)F)cc3)CCNCC2)cc1", "note": "[21a, 4-((4-Fluorobenzyl)oxy)-4-(4-(trifluoromethyl)phenyl)piperidine Hydrochloride]", "values": [
      {"measurement": "Ki", "setting": "DAT [2]", "result": "> 100", "unit": "µM"},
      {"measurement": "Ki", "setting": "NET [3]", "result": "> 10000", "unit": "nM"},
      {"measurement": "melting point", "result": "261 °C (dec.)"}
    ]},
    {"smiles": "c1ccc2c(CCC3CCNCC3)c[nH]c2c1", "note": "[compound 14, indalpine]", "values": [
      {"measurement": "NET pKi exp", "setting": "NET [4]; [14]", "result": 6.29},
      {"measurement": "DAT pKi exp", "setting": "DAT [1]", "result": 6},
      {"measurement": "SERT pKi exp", "setting": "SERT [5]; [14]", "result": 8.76}
    ]},
    {"smiles": "CNCC[C@@H](Oc1ccccc1C)c1ccccc1", "note": "[compound 6, atomoxetine]", "values": [
      {"measurement": "DAT pKi exp", "setting": "DAT [1]", "result": 5.8}
    ]},
    {"smiles": "COc1ccc(OC[C@H]2CN(C)CC[C@@H]2c2ccccc2)cc1", "note": "[compound 4, femoxetine]", "values": [
      {"measurement": "NET pKi exp", "setting": "NET [4]; [14]", "result": 6.12},
      {"measurement": "DAT pKi exp", "setting": "DAT [1]", "result": 5.7}
    ]},
    {"smiles": "Cl.Fc1ccccc1COC1(c2ccc(C(F)(F)F)cc2)CCNCC1", "note": "[21c, 4-((2-Fluorobenzyl)oxy)-4-(4-(trifluoromethyl)phenyl)piperidine Hydrochloride]", "values": [
      {"measurement": "Ki", "setting": "DAT [2]", "result": 11.1, "unit": "µM"},
      {"measurement": "Ki", "setting": "NET [3]; [15]", "result": 2070, "unit": "nM"},
      {"measurement": "melting point", "result": "210 °C (dec.)"}
    ]},
    {"smiles": "Cl.Fc1ccc(COC2(c3ccc(F)cc3)CCNCC2)cc1", "note": "[20a, 4-((4-Fluorobenzyl)oxy)-4-(4-fluorophenyl)piperidine Hydrochloride]", "values": [
      {"measurement": "Ki", "setting": "DAT [2]", "result": "> 100", "unit": "µM"},
      {"measurement": "Ki", "setting": "NET [3]; [15]", "result": 520, "unit": "nM"},
      {"measurement": "melting point", "result": "158 to 159", "unit": "°C"}
    ]},
    {"smiles": "CN(C)C/C=C(/c1ccc(Br)cc1)c1cccnc1", "note": "[compound 18, zimelidine]", "values": [
      {"measurement": "DAT pKi exp", "setting": "DAT [1]", "result": 4.93}
    ]},
    {"smiles": "Cl.Fc1ccc(C2(OCc3ccc(C(F)(F)F)cc3)CCNCC2)cc1", "note": "[compound 20b, 4-(4-Fluorophenyl)-4-((4-(trifluoromethyl)benzyl)oxy)piperidine Hydrochloride]", "values": [
      {"measurement": "[3H]paroxetine, Ki", "setting": "SERT [6]", "result": "picomolar range"},
      {"measurement": "Ki", "setting": "SERT [7]", "result": "0.17 ± 0.02", "unit": "nM"},
      {"measurement": "potency as inhibitor of [3H]paroxetine binding relative to unlabeled paroxetine", "setting": "SERT [8]", "result": "~10", "unit": "fold"},
      {"measurement": "Ki", "setting": "NET [3]; [15]", "result": 10000, "unit": "nM"},
      {"measurement": "melting point", "result": "184 to 185", "unit": "°C"},
      {"measurement": "IC50", "setting": "SERT [9]", "result": "0.13 ± 0.01", "unit": "nM"},
      {"measurement": "Ki", "setting": "SERT [9]", "result": 0.08, "unit": "nM"},
      {"measurement": "type of inhibition of [3H]5-HT uptake", "setting": "SERT [9]; human platelets, Lineweaver-Burk plot, Vmax unchanged, Km changed", "result": "competitive"},
      {"measurement": "Ki", "setting": "DAT [10]", "result": "> 100", "unit": "µM"}
    ]},
    {"smiles": "Cl.Fc1ccc(C2(OCc3ccc4c(c3)OCO4)CCNCC2)cc1", "note": "[20d, 4-(Benzo[D][1,3]dioxol-5-ylmethoxy)-4-(4-fluorophenyl)piperidine Hydrochloride]", "values": [
      {"measurement": "[3H]paroxetine, Ki", "setting": "SERT [6]", "result": "picomolar range"},
      {"measurement": "Ki", "setting": "SERT [7]", "result": "1.71 ± 0.15", "unit": "nM"},
      {"measurement": "potency as inhibitor of [3H]paroxetine binding relative to unlabeled paroxetine", "setting": "SERT [8]", "result": "~10", "unit": "fold"},
      {"measurement": "Ki", "setting": "NET [3]; [15]", "result": 1740, "unit": "nM"},
      {"measurement": "IC50", "setting": "SERT [9]", "result": "2.64 ± 0.3", "unit": "nM"},
      {"measurement": "Ki", "setting": "SERT [9]", "result": 1.75, "unit": "nM"},
      {"measurement": "Ki", "setting": "DAT [10]", "result": "> 100", "unit": "µM"}
    ]},
    {"smiles": "COC(=O)[C@H]1[C@@H](c2ccc(Cl)cc2)C[C@@H]2CC[C@H]1N2C", "note": "[compound 9, RTI-31]", "values": [
      {"measurement": "NET pKi exp", "setting": "NET [4]", "result": 7.4},
      {"measurement": "DAT pKi exp", "setting": "DAT [1]", "result": 8.57}
    ]},
    {"smiles": "Cl.FC(F)(F)c1ccc(C2(OCc3ccc4c(c3)OCO4)CCNCC2)cc1", "note": "[21d, 4-(Benzo[d][1,3]dioxol-5-ylmethoxy)-4-(4-(trifluoromethyl)phenyl)piperidine Hydrochloride]", "values": [
      {"measurement": "[3H]paroxetine, Ki", "setting": "SERT [6]", "result": "picomolar range"},
      {"measurement": "Ki", "setting": "SERT [7]", "result": "8.72 ± 0.93", "unit": "nM"},
      {"measurement": "Ki", "setting": "NET [3]; [15]", "result": 2450, "unit": "nM"},
      {"measurement": "IC50", "setting": "SERT [9]", "result": "4.9 ± 0.5", "unit": "nM"},
      {"measurement": "Ki", "setting": "SERT [9]", "result": 3.26, "unit": "nM"},
      {"measurement": "Ki", "setting": "DAT [10]", "result": 11.2, "unit": "µM"}
    ]},
    {"smiles": "Fc1ccc([C@@H]2CCNC[C@H]2COc2ccc3c(c2)OCO3)cc1", "note": "[compound 1, paroxetine]", "values": [
      {"measurement": "Ki", "setting": "NET [11]", "result": "80 ± 1", "unit": "nM"}
    ]},
    {"smiles": "CN1[C@H]2CC[C@@H]1[C@@H](C(=O)N1CCCC1)[C@@H](c1ccc(I)cc1)C2", "note": "[compound 17, RTI-229]", "values": [
      {"measurement": "NET pKi exp", "setting": "NET [4]; [14]", "result": 6.22},
      {"measurement": "SERT pKi exp", "setting": "SERT [5]", "result": 6.8}
    ]},
    {"smiles": "COC(=O)[C@H]1[C@@H](c2ccc(I)cc2)C[C@@H]2CC[C@H]1N2C", "note": "[compound 10, RTI-55]", "values": [
      {"measurement": "NET pKi exp", "setting": "NET [4]", "result": 7.7},
      {"measurement": "DAT pKi exp", "setting": "DAT [1]", "result": 8.41},
      {"measurement": "SERT pKi exp", "setting": "SERT [5]", "result": 8.4}
    ]},
    {"smiles": "c1ccc(CCCN2CCN(CCOC(c3ccccc3)c3ccccc3)CC2)cc1", "note": "[compound 13, GBR-12935]", "values": [
      {"measurement": "NET pKi exp", "setting": "NET [4]; [14]", "result": 6.2}
    ]},
    {"smiles": "Cl.FC(F)(F)c1ccc(COC2(c3ccc(C(F)(F)F)cc3)CCNCC2)cc1", "note": "[21b, 4-((4-(Trifluoromethyl)benzyl)oxy)-4-(4-(trifluoromethyl)phenyl)piperidine Hydrochloride]", "values": [
      {"measurement": "[3H]paroxetine, Ki", "setting": "SERT [6]", "result": "picomolar range"},
      {"measurement": "Ki", "setting": "SERT [7]", "result": "5.6 ± 0.52", "unit": "nM"},
      {"measurement": "Ki", "setting": "NET [3]; [15]", "result": "> 10000", "unit": "nM"},
      {"measurement": "melting point", "result": "189 to 190", "unit": "°C"},
      {"measurement": "IC50", "setting": "SERT [9]", "result": "4.2 ± 0.4", "unit": "nM"},
      {"measurement": "Ki", "setting": "SERT [9]", "result": 2.77, "unit": "nM"},
      {"measurement": "Ki", "setting": "DAT [10]", "result": "> 100", "unit": "µM"}
    ]},
    {"smiles": "CN1C2CCC1C(C(=O)Oc1ccccc1)C(c1ccc(Cl)cc1)C2", "note": "(stereo not drawn) [compound 19, RTI-113]", "values": [
      {"measurement": "SERT pKi exp", "setting": "SERT [12]", "result": 6.67},
      {"measurement": "NET pKi exp", "setting": "NET [13]", "result": 5.75}
    ]},
    {"smiles": "CNCCC(Oc1ccccc1OC)c1ccccc1", "note": "(stereo not drawn) [compound 8, nisoxetine]", "values": [
      {"measurement": "NET pKi exp", "setting": "NET [13]", "result": 9.34}
    ]},
    {"smiles": "Cl.Fc1ccc(C2(OCc3ccccc3F)CCNCC2)cc1", "note": "[20c, 4-((2-Fluorobenzyl)oxy)-4-(4-fluorophenyl)piperidine Hydrochloride]", "values": [
      {"measurement": "Ki", "setting": "DAT [2]", "result": "> 100", "unit": "µM"},
      {"measurement": "Ki", "setting": "NET [3]; [15]", "result": 400, "unit": "nM"},
      {"measurement": "melting point", "result": 202, "unit": "°C"}
    ]},
    {"smiles": "CCOc1ccccc1OCC1CNCCO1", "note": "(stereo not drawn) [compound 16, viloxazine]", "values": [
      {"measurement": "NET pKi exp", "setting": "NET [4]", "result": 6.81},
      {"measurement": "DAT pKi exp", "setting": "DAT [1]", "result": 5}
    ]}
  ]
}
